Here are results for five compounds from publication PMC11271582.

In general, EC50 refers to the midpoint of the concentration-response curve.

The test system of one data set is ZIKV. Further details: method as in PMID 34671169. The conditions noted are these: cited from earlier work.
In a further data set the target is DENV NS1-5 polyprotein (Dengue virus type 2, UniProt P29990). In words: polyprotein processing by western blot (pIRO-D system). To be noted: 35 nM, regardless of the time of addition. In general terms: In western blotting, separated proteins are transferred to a membrane and probed.
DENV NS1-5 polyprotein, sequence (P29990 2244-2491): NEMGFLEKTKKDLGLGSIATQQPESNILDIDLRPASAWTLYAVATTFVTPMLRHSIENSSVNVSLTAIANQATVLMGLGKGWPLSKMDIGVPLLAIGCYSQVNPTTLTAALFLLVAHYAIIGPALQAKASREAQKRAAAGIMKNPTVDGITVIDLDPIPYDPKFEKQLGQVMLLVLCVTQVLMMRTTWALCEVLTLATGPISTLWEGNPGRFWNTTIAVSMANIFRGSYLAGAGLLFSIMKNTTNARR
In data set [1] the test system is DENV vesicle packets (VPs) formation. In words: determination of VPs formation (pIRO-D system, TEM) in Huh7/Lunet-T7 cells.
Another data set relates to DENV-2/16681. Further details: method as in PMID 34671169. The conditions noted are these: pan-serotype; cited from earlier work.
The subject of another data set is YFV. The conditions noted are these: cited from earlier work.
The subject of a further data set is cells. Also on record: method as in Kaptein et al, Nature, 2021. The conditions noted are these: at used concentrations; ref Kaptein et al, Nature, 2021; cited from earlier work.
Data set [2] deals with protein synthesis (RNA translation) in Huh7/Lunet-T7 cells. The experiment in a line: ribopuromycylation assay. It counts as cell-based, human. The conditions noted are these: 200 µg/ml. The procedure: A protocol for the ribopuromycylation method to detect nascent protein synthesis[52] was integrated into the workflow for the determination of VPs formation. In brief, cycloheximide (CHX, 200 µg/ml) was added to cells 30 min before the start of a four-hour treatment with 35 nM JNJ-A07 (or vehicle control) to block de novo protein synthesis. Thereafter, the medium was replaced with DMEMComplete prewarmed to 37 °C, to which puromycin was added at a final concentration of 10 µg/ml. Cells were incubated at 37 °C for 5 minutes and then either fixed for microscopy or lysed for western blot analysis.

Data set [3] relates to T1, WT (transient replicon assay, sgDVs-R2A, DENV 2/16681).
T1 construct: 16681 wild-type subgenomic reporter replicon sgDVs-R2A
The experiment in a line: microbe, parasite or virus in culture. Further details: species or system Huh7-derived cells (sheet title cut off after 'Hu'); transient DENV-2 replicon assay, inhibition of wild-type replicon replication. To be noted: wild-type replicon, replicate. Background: Replicon systems follow genome replication, usually without infectious particles.

Another data set has as its target DENV NS4B and NS3 (Dengue virus type 2, UniProt P29990). The experiment in a line: imaging-based colocalization of click-labeled PAL compounds with DENV proteins (pIRO-D). The conditions noted are these: 1 µM; pIRO-D WT, Huh7/Lunet-T7 cells.
In a further data set the target is T2, Calnexin-HA (Homo sapiens, UniProt P27824).
T2 construct: expressed in transfected cells
T2 sequence (P27824 21-592): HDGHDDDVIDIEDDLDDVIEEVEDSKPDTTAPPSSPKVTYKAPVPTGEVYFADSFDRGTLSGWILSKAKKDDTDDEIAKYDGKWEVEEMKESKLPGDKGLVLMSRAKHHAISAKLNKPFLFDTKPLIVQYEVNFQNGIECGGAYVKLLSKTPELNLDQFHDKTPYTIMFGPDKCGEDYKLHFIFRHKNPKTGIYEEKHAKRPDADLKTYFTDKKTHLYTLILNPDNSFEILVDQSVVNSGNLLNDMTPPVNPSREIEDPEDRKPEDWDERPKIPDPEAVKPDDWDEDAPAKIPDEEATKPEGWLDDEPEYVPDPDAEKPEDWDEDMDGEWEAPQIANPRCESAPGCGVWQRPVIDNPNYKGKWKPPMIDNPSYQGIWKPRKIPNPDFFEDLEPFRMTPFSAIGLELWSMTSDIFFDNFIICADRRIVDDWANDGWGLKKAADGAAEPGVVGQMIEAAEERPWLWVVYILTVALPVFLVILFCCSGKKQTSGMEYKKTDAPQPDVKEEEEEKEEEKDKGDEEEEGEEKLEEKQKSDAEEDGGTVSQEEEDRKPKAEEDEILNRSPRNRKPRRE
In words: photoaffinity labeling and click labeling on agarose beads (specificity control). It counts as binding. To be noted: 1 µM, UV 365 nm.

The next data set addresses ZIKV NS4B (Zika virus, UniProt A0A024B7W1). The experiment in a line: imaging-based colocalization of click-labeled PAL compound with ZIKV NS4B (pIRO-Z). To be noted: 1 µM, Huh7/Lunet-T7 cells.
Another data set concerns DENV-1 or DENV-2. The conditions noted are these: non-human primates; cited from earlier work.

Several values for one entry are separate records, joined by “and”; a condition that tells them apart may be missing. Identical values can stand only once.

DENV NS4B and NS3, sequence (P29990 2244-2491): as the sequence (P29990 2244-2491) above
ZIKV NS4B, sequence (A0A024B7W1 2270-2520): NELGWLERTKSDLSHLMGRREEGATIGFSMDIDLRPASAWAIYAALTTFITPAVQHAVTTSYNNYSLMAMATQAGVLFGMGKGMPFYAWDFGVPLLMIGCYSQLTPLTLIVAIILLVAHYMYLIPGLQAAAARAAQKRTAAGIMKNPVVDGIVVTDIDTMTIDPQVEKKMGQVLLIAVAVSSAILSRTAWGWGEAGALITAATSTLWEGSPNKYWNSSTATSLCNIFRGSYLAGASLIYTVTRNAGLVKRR

For the compound `COc1cc(NC(C(=O)N2CCc3ccc(OC(F)(F)F)cc32)c2ccc(Cl)cc2)cc(OCCCC(=O)O)c1` (stereo not shown) [JNJ-A07], the “antiviral activity against ZIKV” value in the data set with ZIKV is reported as “marginal antiviral activity”. The “effect on polyprotein processing” value on DENV NS1-5 polyprotein is “no apparent effect on polyprotein processing”. Moreover, the VPE diameter result in [1] (35 nM) is “no effect on VPE diameter”. In addition, the “VPs in time-of-addition experiment” value in data set [1] (35 nM added early, 4 h after transfection) is given as “almost complete loss of VPs”. In data set [1] (35 nM added late, 16 h after transfection), the “VPE formation efficiency in time-of-addition experiment” value is “reduced to a much lower degree”. For the same compound, the “VPE decay with protein synthesis blocked” value in data set [1] (35 nM with CHX 200 µg/ml, compared to CHX only) is “does not accelerate VPE decay”. Moreover, in data set [1] (35 nM, NS4B resistance mutants), the VPE efficiency entry is “not affected”. For the same compound, the “activity against DENV” value in the data set on DENV-2/16681 is listed as “nano- to picomolar”. For the same compound, the “antiviral activity against YFV lower compared to an average value for a DENV isolate” value with YFV is “about 1000 times”. For the same compound, the cytotoxicity result in the data set with cells is “not cytotoxic”.
`C[C@@H]1C[C@@H]([C@H](O)CC2CC(=O)NC(=O)C2)C(=O)[C@@H](C)C1` [CHX, cycloheximide]: the “RNA translation (puromycin incorporation)” value in data set [2] is listed as “completely arrested RNA translation”.
For the compound `C#CCCC1(CCn2cc(C(=O)C(Nc3cc(OC)cc(OCCOC)c3)c3ccc(Cl)cc3OC)c3cc(OC(F)(F)F)ccc32)N=N1` (stereo not shown) [Compound A], the EC50 in data set [3] (Dengue virus, Experimental series=1) was 65 nM; in data set [3] (Dengue virus, Experimental series=2), 61 nM; in data set [3] (Dengue virus, Experimental series=3), 52.9 nM; in data set [3] (Experimental series=1, inhibitor), 58 nM and 52 nM; in data set [3] (Experimental series=2, inhibitor), 48 nM and 49 nM; in [3] (Experimental series=3, inhibitor), 68.3 nM and 64.3 nM. On DENV NS4B and NS3, the “colocalization of labeled PAL compound with NS4B (and NS3), Pearson correlation” value is on record as “high degree of colocalization”. The “Cy5.5 labeling of HA-tagged Calnexin” value at Calnexin-HA is “No labeling”. On ZIKV NS4B, the “colocalization of labeled compound with ZIKV NS4B” value was “low-level, albeit significant colocalization”.
With `COc1cc(N[C@H](C(=O)c2c[nH]c3ccc(OC(F)(F)F)cc23)c2ccc(Cl)cc2OC)cc(S(C)(=O)=O)c1` [Mosnodenvir], the “efficacy against infection with either DENV-1 or DENV-2” value in the data set on DENV-1 or DENV-2 is given as “highly effective”.
`C#CCCC1(CCn2cc(C(=O)C(Nc3cc(OC)cc(OCCOC)c3)c3ccc(Cl)cc3OC)c3cc(OC(F)(F)F)ccc32)N=N1` (stereo not shown) [Compound B]: the “colocalization of labeled PAL compound with NS4B (and NS3), Pearson correlation” value on DENV NS4B and NS3 was “significantly lower colocalization”.
